For one data set, the target named is T1, Tyrosinase (Agaricus bisporus, UniProt O42713).
T1 sequence (O42713 whole entry): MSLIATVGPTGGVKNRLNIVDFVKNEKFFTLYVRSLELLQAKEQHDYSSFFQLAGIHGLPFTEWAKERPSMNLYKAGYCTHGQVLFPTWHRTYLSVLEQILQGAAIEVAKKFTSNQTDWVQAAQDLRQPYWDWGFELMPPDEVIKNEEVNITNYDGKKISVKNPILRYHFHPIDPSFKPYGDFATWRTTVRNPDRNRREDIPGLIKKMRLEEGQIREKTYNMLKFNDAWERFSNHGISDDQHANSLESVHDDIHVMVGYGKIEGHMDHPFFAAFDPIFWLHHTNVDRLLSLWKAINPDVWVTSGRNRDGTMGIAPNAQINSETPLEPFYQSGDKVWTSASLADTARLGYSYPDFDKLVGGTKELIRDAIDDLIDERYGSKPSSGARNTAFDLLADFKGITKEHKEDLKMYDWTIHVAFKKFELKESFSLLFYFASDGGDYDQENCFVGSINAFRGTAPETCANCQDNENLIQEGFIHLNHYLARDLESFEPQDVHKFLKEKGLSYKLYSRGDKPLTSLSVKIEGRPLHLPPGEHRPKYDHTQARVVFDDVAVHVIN

In another data set the target is T2, Aldehyde oxidase 1 (Oryctolagus cuniculus, UniProt P80456).
T2 sequence (P80456 whole entry): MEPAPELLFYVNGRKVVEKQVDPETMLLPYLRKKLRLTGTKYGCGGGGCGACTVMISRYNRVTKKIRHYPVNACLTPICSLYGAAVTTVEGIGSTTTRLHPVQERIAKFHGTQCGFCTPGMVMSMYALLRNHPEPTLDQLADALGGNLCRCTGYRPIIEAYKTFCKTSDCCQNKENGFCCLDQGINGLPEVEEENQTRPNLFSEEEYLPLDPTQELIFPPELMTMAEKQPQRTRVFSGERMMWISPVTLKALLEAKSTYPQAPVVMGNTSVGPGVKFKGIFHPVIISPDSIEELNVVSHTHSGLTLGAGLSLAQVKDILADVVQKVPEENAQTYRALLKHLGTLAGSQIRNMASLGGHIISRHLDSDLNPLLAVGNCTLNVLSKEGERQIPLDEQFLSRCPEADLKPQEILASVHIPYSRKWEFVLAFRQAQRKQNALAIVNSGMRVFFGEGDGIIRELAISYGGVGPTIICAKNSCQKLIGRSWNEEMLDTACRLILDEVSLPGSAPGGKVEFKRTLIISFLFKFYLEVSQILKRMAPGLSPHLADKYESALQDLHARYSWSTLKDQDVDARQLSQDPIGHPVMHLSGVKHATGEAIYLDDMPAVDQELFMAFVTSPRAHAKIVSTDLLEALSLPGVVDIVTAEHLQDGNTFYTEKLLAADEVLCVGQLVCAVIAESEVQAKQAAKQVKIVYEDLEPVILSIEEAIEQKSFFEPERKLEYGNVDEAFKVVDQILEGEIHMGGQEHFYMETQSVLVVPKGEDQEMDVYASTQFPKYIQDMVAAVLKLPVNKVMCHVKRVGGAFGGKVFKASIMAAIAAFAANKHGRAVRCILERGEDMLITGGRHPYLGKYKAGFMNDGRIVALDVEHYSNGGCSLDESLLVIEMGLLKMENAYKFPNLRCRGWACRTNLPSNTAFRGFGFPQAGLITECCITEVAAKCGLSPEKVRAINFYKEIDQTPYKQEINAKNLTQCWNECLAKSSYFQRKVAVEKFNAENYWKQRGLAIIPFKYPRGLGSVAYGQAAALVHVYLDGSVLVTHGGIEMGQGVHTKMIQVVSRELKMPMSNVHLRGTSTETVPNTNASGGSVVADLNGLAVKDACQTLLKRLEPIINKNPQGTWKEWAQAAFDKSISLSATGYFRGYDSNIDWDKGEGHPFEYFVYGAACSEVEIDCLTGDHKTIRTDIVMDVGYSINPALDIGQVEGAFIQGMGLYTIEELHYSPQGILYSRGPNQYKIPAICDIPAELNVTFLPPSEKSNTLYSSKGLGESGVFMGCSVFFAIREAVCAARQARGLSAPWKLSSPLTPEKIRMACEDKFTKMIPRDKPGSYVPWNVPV
In kind it is ADME, tissue-based, Liver, Cytosol.

The subject of a further data set is Spinacia oleracea. The experiment in a line: Phytotoxicity against Spinacia oleracea (spinach) seedlings assessed as lesions at 100 ppm after 9 days. The format is organism-based. Particulars: in vivo, 216 h.
The target in a further data set is T3, Catalase (Bos taurus, UniProt P00432).
T3 sequence (P00432 whole entry): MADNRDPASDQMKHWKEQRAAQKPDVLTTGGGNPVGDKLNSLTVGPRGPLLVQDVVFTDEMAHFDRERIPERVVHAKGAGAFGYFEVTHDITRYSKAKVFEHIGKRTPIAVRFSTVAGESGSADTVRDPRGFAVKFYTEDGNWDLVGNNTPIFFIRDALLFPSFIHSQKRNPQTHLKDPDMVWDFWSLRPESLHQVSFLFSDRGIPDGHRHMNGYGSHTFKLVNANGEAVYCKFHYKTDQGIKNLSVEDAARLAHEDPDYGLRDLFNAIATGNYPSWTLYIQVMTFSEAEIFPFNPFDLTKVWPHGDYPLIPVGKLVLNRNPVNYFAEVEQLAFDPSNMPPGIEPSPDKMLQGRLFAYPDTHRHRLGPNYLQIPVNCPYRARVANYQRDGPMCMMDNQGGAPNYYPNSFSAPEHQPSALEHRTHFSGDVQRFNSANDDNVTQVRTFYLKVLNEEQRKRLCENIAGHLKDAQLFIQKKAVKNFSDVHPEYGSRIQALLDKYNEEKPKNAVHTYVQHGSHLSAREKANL
In kind it is ADME, tissue-based, Liver.

Description for Aldehyde oxidase 1: Inhibition of Oryctolagus cuniculus (rabbit) AOX in liver cytosol
Description for Catalase: Inhibition of Bos taurus (bovine) CAT in liver
Description for Tyrosinase: Inhibition of Agaricus bisporus (mushroom) tyrosinase

In the case of `O=Cc1ccco1` [FURFURAL], the IC50 (usually the concentration at which inhibition is half-maximal) on Tyrosinase (read-out: IC50) is 43 µM; at Aldehyde oxidase 1 it was 700 µM.

In the case of `C/C(=N\C#N)N(C)Cc1ccc(Cl)nc1`, the IC50 was 1740 µM on Tyrosinase (read-out: IC50) and over 1000 µM on Aldehyde oxidase 1. For the same molecule, the Activity entry in the data set with Spinacia oleracea is recorded as “Toxic”.

As to `O=C(O)c1cccnc1S` [2-MERCAPTONICOTINIC ACID], the figures for the IC50 on Tyrosinase (read-out: IC50), at Catalase and against Aldehyde oxidase 1 were 80 µM, over 1000 µM and over 1000 µM, respectively.

As to `O=C(O)c1ccc(Cl)cc1O`, the IC50 on Tyrosinase (read-out: IC50) is 520 µM; against Catalase it was over 1000 µM; on Aldehyde oxidase 1, over 1000 µM.

Turning to `O=C(O)C1CCOC1` (stereo not drawn), the IC50 at Tyrosinase (read-out: IC50), against Catalase and against Aldehyde oxidase 1 was over 1000 µM in each case.

Consider `O=Cc1ccc(Cl)nc1` [6-CHLORONICOTINALDEHYDE], for which the IC50 on Tyrosinase (read-out: IC50) was 770 µM; against Aldehyde oxidase 1, 720 µM.

Regarding `O=Cc1cccnc1` [NICOTINALDEHYDE], the results for the IC50 on Tyrosinase (read-out: IC50) and against Aldehyde oxidase 1 were 28 µM and 600 µM, respectively.

For `CN/C(=N/CC1CCOC1)N[N+](=O)[O-]` (stereo not drawn) [DINOTEFURAN], the IC50 on Tyrosinase (read-out: IC50) and against Aldehyde oxidase 1 was over 1000 µM throughout.

`O=CC1CCOC1` (stereo not drawn) [TETRAHYDROFURAN-3-CARBALDEHYDE]: the results for the IC50 on Tyrosinase (read-out: IC50) and on Aldehyde oxidase 1 were over 1000 µM and 360 µM, respectively.

`O=Cc1cncs1` [THIAZOLE-5-CARBALDEHYDE]: the IC50 is 7 µM at Tyrosinase (read-out: IC50) and 890 µM against Aldehyde oxidase 1.

For the molecule `Oc1ncnc2[nH]ncc12` [ALLOPURINOL], the IC50 at Tyrosinase (read-out: IC50) and on Aldehyde oxidase 1 was over 1000 µM each time.

Regarding `O=C(O)c1cccnc1` [NIACIN], at Tyrosinase (read-out: IC50), the IC50 was over 1000 µM.

Consider `CN/C(=N\[N+](=O)[O-])NCc1cnc(Cl)s1` [CLOTHIANIDINE], for which the concentration for half-maximal inhibition (IC50) at Tyrosinase (read-out: IC50) and against Aldehyde oxidase 1 was over 1000 µM each time. In the data set with Spinacia oleracea, the Activity entry is listed as “Toxic”.

For the molecule `CN1COCN(Cc2cnc(Cl)s2)/C1=N\[N+](=O)[O-]` [THIAMETHOXAM], the IC50 at Tyrosinase (read-out: IC50) and at Aldehyde oxidase 1 was over 1000 µM in each case.

`O=C(O)c1ccc(S)nc1` [6-MERCAPTONICOTINIC ACID]: the IC50 at Tyrosinase (read-out: IC50) is 42 µM; at Catalase, over 1000 µM; against Aldehyde oxidase 1, over 1000 µM.

As for `N=C(N)NN` [PIMAGEDINE], the IC50 against Catalase amounted to 500 µM.

On to `O=C(O)c1ccc(Cl)nc1` [6-CHLORONICOTINIC ACID], for which the half-inhibitory concentration (IC50) on Tyrosinase (read-out: IC50), against Catalase and on Aldehyde oxidase 1 was over 1000 µM in each case.

Regarding `O=Cc1ccoc1` [FURAN-3-CARBALDEHYDE], the IC50 at Tyrosinase (read-out: IC50) amounted to 15 µM; on Aldehyde oxidase 1, 260 µM.

Molecule `O=Cc1ccccc1` [BENZALDEHYDE] registered a 50% inhibitory concentration (IC50) at Aldehyde oxidase 1 of 660 µM.

Consider `O=Cc1ccc(O)cc1` [4-HYDROXYBENZALDEHYDE], for which the IC50 on Tyrosinase (read-out: IC50) worked out at 770 µM; against Aldehyde oxidase 1 it was 570 µM.

On to `O=C(O)c1cnc(Cl)s1`, for which the IC50 on Tyrosinase (read-out: IC50), against Catalase and at Aldehyde oxidase 1 was over 1000 µM throughout.

`O=C(O)c1ccccc1` [BENZOIC ACID]: the IC50 on Tyrosinase (read-out: IC50) was 270 µM; on Catalase, over 1000 µM; on Aldehyde oxidase 1, over 1000 µM.

As for `O=Cc1cnc(Cl)s1`, the IC50 turned out to be 64 µM at Tyrosinase (read-out: IC50) and 360 µM on Aldehyde oxidase 1.

`O=Cc1cccnc1Cl` [2-CHLORONICOTINALDEHYDE]: the IC50 on Tyrosinase (read-out: IC50) is over 1000 µM; at Aldehyde oxidase 1, 350 µM.

As for `CCN(Cc1ccc(Cl)nc1)/C(=C/[N+](=O)[O-])NC`, the IC50 on Tyrosinase (read-out: IC50) and at Aldehyde oxidase 1 was over 1000 µM throughout.

As for `O=C(c1ccc(OCCN2CCCCC2)cc1)c1c(-c2ccc(O)cc2)sc2cc(O)ccc12` [RALOXIFENE], the values for the IC50 result against Tyrosinase and at Aldehyde oxidase 1 were “ND(Insoluble)” and 1530 µM, respectively.

These data come from ChEMBL document CHEMBL3045711, “Neonicotinoid insecticides: oxidative stress in planta and metallo-oxidase inhibition” (J Agric Food Chem, 2011).
